ChEMBL document CHEMBL1201862, “PubChem BioAssay data set” (2004)
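Five concentrations, 48 hours, 96-well plates. Here, GI50 denotes the concentration required for 50% inhibition of growth.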 Active and inactive are the calls of the source. No stated cut-off is given here; in the data, active = GI50 up to about 1.1 µM and inactive = higher.

Assays:
Test in all cases: inhibition of tumour cell growth, NCI panel, 48 h
[1] = system: HCT-15
[2] = system: LOX IMVI
[3] = system: UACC-62
[4] = system: NCI-H23
[5] = system: HOP-92
[6] = system: HOP-62
[7] = system: OVCAR-8
[8] = system: A549
[9] = system: HCT-116
[10] = system: 786-0
[11] = system: CAKI-1
[12] = system: Hs-578T
[13] = system: NCI/ADR-RES
[14] = system: T47D
[15] = system: BT-549
[16] = system: RXF 393
[17] = system: SK-MEL-28
[18] = system: U-251
[19] = system: SNB-19
[20] = system: MDA-N

SMILES	GI50 [1] [µM]	GI50 [2]	GI50 [3]	GI50 [4]	GI50 [5]	GI50 [6]	GI50 [7]	GI50 [8]	GI50 [9]	GI50 [10]	GI50 [11]	GI50 [12]	GI50 [13]	GI50 [14]	GI50 [15]	GI50 [16]	GI50 [17]	GI50 [18]	GI50 [19]	GI50 [20]
c1ccc(CSc2nc(N3CCOCC3)c3cn[nH]c3n2)cc1	25.8	15.4 µM (inactive)	11.4 µM (inactive)	49.2 µM (inactive)	0.237 µM (active)	27 µM (inactive)	18.4 µM (inactive)	22.8 µM (inactive)	30.5 µM (inactive)	37.7 µM (inactive)	9.18 µM (inactive)	13.2 µM (inactive)	15.2 µM (inactive)	15.6 µM (inactive)	11.7 µM (inactive)	6.1 µM (inactive)	19.1 µM (inactive)	20.5 µM (inactive)	24.7 µM (inactive)	–
CN1C(=O)c2c(ccc3c2OCO3)C2C(O)Cc3cc4c(cc3C21)OCO4 (stereo unspecified)	3.73	9.12 µM (inactive)	3.36 µM (inactive)	5.58 µM (inactive)	5.79 µM (inactive)	–	5.11 µM (inactive)	5.96 µM (inactive)	4.34 µM (inactive)	4.17 µM (inactive)	4.76 µM (inactive)	5.26 µM (inactive)	3.03 µM (inactive)	–	13.8 µM (inactive)	–	3.22 µM (inactive)	4.29 µM (inactive)	3.21 µM (inactive)	1.91 µM (inactive)
CCOC(=O)c1c(N)sc2c1C(C)(C(=O)OCC)CC2 (stereo unspecified)	> 100	–	> 100 µM (inactive)	> 100 µM (inactive)	58.3 µM (inactive)	> 100 µM (inactive)	> 100 µM (inactive)	63.1 µM (inactive)	97.5 µM (inactive)	> 100 µM (inactive)	–	78.7 µM (inactive)	–	–	> 100 µM (inactive)	> 100 µM (inactive)	> 100 µM (inactive)	> 100 µM (inactive)	> 100 µM (inactive)	> 100 µM (inactive)
CC(=O)O[C@@H]1CC[C@@]2(C)C(CC[C@H]3[C@@H]4CC[C@H]([C@H](C)CCc5nc6cc(C)ccc6[nH]5)[C@@]4(C)CC[C@@H]32)C1 (stereo partly specified)	46.6	1.66 µM (inactive)	11.5 µM (inactive)	17.3 µM (inactive)	69.5 µM (inactive)	13.1 µM (inactive)	11 µM (inactive)	43.4 µM (inactive)	> 100 µM (inactive)	8.69 µM (inactive)	> 100 µM (inactive)	13.9 µM (inactive)	97.3 µM (inactive)	0.0352 µM (active)	29.8 µM (inactive)	6.81 µM (inactive)	> 100 µM (inactive)	18.2 µM (inactive)	> 100 µM (inactive)	–
CN(C)CCNc1ccc(NCC[N+](C)(C)Cc2ccc([N+](=O)[O-])cc2)c2c1C(=O)c1c(O)ccc(O)c1C2=O	6.82	25.5 µM (inactive)	31.6 µM (inactive)	54 µM (inactive)	–	79.3 µM (inactive)	> 100 µM (inactive)	–	15.8 µM (inactive)	18.2 µM (inactive)	12.2 µM (inactive)	28.9 µM (inactive)	> 100 µM (inactive)	36.3 µM (inactive)	18.8 µM (inactive)	–	> 100 µM (inactive)	34 µM (inactive)	> 100 µM (inactive)	20.7 µM (inactive)
FC1C2=C(SC1(F)F)C1CCC2C1 (stereo unspecified)	> 100	> 100 µM (inactive)	> 100 µM (inactive)	> 100 µM (inactive)	> 100 µM (inactive)	–	> 100 µM (inactive)	> 100 µM (inactive)	> 100 µM (inactive)	> 100 µM (inactive)	> 100 µM (inactive)	> 100 µM (inactive)	> 100 µM (inactive)	> 100 µM (inactive)	> 100 µM (inactive)	> 100 µM (inactive)	–	–	> 100 µM (inactive)	–
CC(C)OC1=C(CC2(C)OCCO2)C(=O)C12OCCO2	> 100	> 100 µM (inactive)	> 100 µM (inactive)	42 µM (inactive)	> 100 µM (inactive)	> 100 µM (inactive)	> 100 µM (inactive)	> 100 µM (inactive)	> 100 µM (inactive)	> 100 µM (inactive)	> 100 µM (inactive)	> 100 µM (inactive)	> 100 µM (inactive)	> 100 µM (inactive)	> 100 µM (inactive)	–	> 100 µM (inactive)	> 100 µM (inactive)	> 100 µM (inactive)	–
CS(=O)(=O)OCCN(CCOS(C)(=O)=O)c1ccc(/C=N/c2cccc(Cl)c2)cc1	1.02	1.13 µM (inactive)	1.5 µM (inactive)	1.66 µM (inactive)	23.8 µM (inactive)	7.23 µM (inactive)	10 µM (inactive)	2.64 µM (inactive)	64.9 µM (inactive)	0.813 µM (active)	0.239 µM (active)	26 µM (inactive)	3.61 µM (inactive)	18.2 µM (inactive)	9.98 µM (inactive)	2.78 µM (inactive)	10.4 µM (inactive)	3.72 µM (inactive)	5.46 µM (inactive)	–
CC(=O)N(CCCCNC(=O)C(F)(F)F)CCCNC(=O)C(F)(F)F	> 100	–	> 100 µM (inactive)	> 100 µM (inactive)	> 100 µM (inactive)	> 100 µM (inactive)	> 100 µM (inactive)	> 100 µM (inactive)	> 100 µM (inactive)	> 100 µM (inactive)	–	> 100 µM (inactive)	> 100 µM (inactive)	> 100 µM (inactive)	> 100 µM (inactive)	> 100 µM (inactive)	> 100 µM (inactive)	> 100 µM (inactive)	> 100 µM (inactive)	–
CC1(C)OCC(CO)(Nc2nc(N3CC3)nc(N3CC3)n2)CO1	15.2	5.52 µM (inactive)	3.15 µM (inactive)	4.12 µM (inactive)	15.3 µM (inactive)	5.53 µM (inactive)	11.3 µM (inactive)	4.05 µM (inactive)	1.85 µM (inactive)	3.88 µM (inactive)	1.52 µM (inactive)	19 µM (inactive)	–	1.49 µM (inactive)	26.1 µM (inactive)	13.2 µM (inactive)	19.5 µM (inactive)	4.04 µM (inactive)	11.2 µM (inactive)	13.3 µM (inactive)
Cc1ccc2c3c1O[C@H]1c4[nH]c5ccccc5c4C[C@@]4(O)[C@@H](C2)N(CC2CC2)CC[C@]314	12.7	15.9 µM (inactive)	16 µM (inactive)	19.7 µM (inactive)	13 µM (inactive)	19.2 µM (inactive)	15.3 µM (inactive)	14.7 µM (inactive)	14.5 µM (inactive)	13.8 µM (inactive)	16.6 µM (inactive)	–	19.1 µM (inactive)	17.6 µM (inactive)	18.3 µM (inactive)	7.38 µM (inactive)	12.6 µM (inactive)	14.4 µM (inactive)	16.7 µM (inactive)	16.2 µM (inactive)
